{"source": "patent US8974814B2", "about": "“Layered drug delivery polymer monofilament fibers” (California Institute of Technology, priority 2007, dated 2015)", "key": {"[1]": {"assay": "Levofloxacin stability on formulation at elevated temperature / autoclaving", "assay_type": "physicochemical", "conditions": "HPLC, solution equilibrated at 60° C.", "from_the_text": "Wet-spinning fibers from a solution of levofloxacin and PLGA results in a product that is porous with a rough surface (on the sub-micron length scale). The internal morphology of the fiber is consistent with fiber prepared in previous work via wet-spinning. (See, e.g., Gao, H., et al., Journal of Controlled Release 2007; 118(3):325-332, the disclosure of which is incorporated herein by reference.) The protuberances on the surface of the fiber are likely the result of the drug forming aggregates on the surface, and/or by the drug distorting the polymer matrix at the surface. Fiber B has larger more discrete protuberances relative to fibers A and C. This may be due to fiber B having suspended particles of drug present in the polymer solution before wet spinning. […] Fiber C was manufactured at an elevated temperature to absolutely assure total drug dissolution in the polymer/DMSO solution. […] (See e.g., Fujimoto, K., et al., Jpn J Pharmacol 1995; 69(4):443-445, the disclosure of which is incorporated herein by reference.)"}, "[2]": {"assay": "Isothermal titration calorimetry of octanoic acid with cyclodextrin", "assay_type": "binding", "conditions": "1:1 complex, DPBS", "procedure": "The binding energy between octanoic acid and -cyclodextrin (-CD) was determined by isothermal titration calorimetry. Briefly, solutions used of […]-CD and 0.2 M octanoic acid were made in DPBS. Ten injections of […] each of the octanoic acid solution were made into 1.37 ml of the cyclodextrin in a Microcal ITC unit. A 1:1 complex is formed with an equilibrium constant of 1900."}}, "data": [{"smiles": "C[C@H]1COc2c(N3CCN(C)CC3)c(F)cc3c(=O)c(C(=O)O)cn1c23", "note": "[Levofloxacin, levofloxacin]", "values": [{"measurement": "stability after formulation at higher temperatures", "setting": "[1]", "value": "no other peaks were observed in the HPLC chromatogram"}]}, {"smiles": "CCCCCCCC(=O)O", "note": "[octanoic acid]", "values": [{"measurement": "equilibrium constant", "setting": "[2]", "value": 1900}]}]}
